Assay: Solubility in polyvinylphenol/tetramethylammonium hydroxide (TMAH) aqueous solution
Format: physicochemical
Details: mass ratio of compound to polyvinylphenol in saturated solution; polyvinylphenol in 3% TMAH aqueous solution; visual check, left to stand one day
Experimental: In a screw-top tube were put 0.36 g of polyvinylphenol (S-2P from Maruzen Petrochemical Co., Ltd.; Mw: 5800) and 10.00 g of a 3% TMAH aqueous solution and heated to dissolve. A 2.00 g portion of the resulting solution was put in another screw-top tube, and a small amount of each of the trifluoromethanesulfonate of each of compound Nos. 1 and 5 and comparative compound No. 1 (intermediate No. 4 obtained in step 1 of Example 1-4) was added thereto and heated. A visual check was made to see whether the compound dissolved. This operation was repeated until saturation. The saturated solution was allowed to stand one day to make sure that no solid precipitated. The mass ratio of each compound to the polyvinylphenol of the saturated solution was taken as a parameter of solubility.

Row | Structure (SMILES) | Solubility (%)
1 | O=C(c1ccccc1)c1ccc(Sc2ccc([S+](c3ccc(O)cc3)c3ccc(O)cc3)cc2)c(F)c1 | 70
2 | O=C(c1ccc(O)cc1)c1ccc(Sc2ccc([S+](c3ccc(F)cc3)c3ccc(F)cc3)cc2)c(F)c1 | 28
3 | O=C(c1ccccc1)c1ccc(Sc2ccc([S+](c3ccc(F)cc3)c3ccc(F)cc3)cc2)c(F)c1 [Comp. Compound No. 1, reference compound] | < 1

Source: US20120130117A1, “AROMATIC SULFONIUM SALT COMPOUND” (ADEKA CORPORATION, priority 2009, published 2012)
